Test results reported in ChEMBL document CHEMBL5543144, “Discovery of a Novel Potent Tetrazole Antifungal Candidate with High Selectivity and Broad Spectrum” (J Med Chem, 2024).
Converted amounts (≈) assume the structure as drawn. The source made the active and inactive calls. The rule behind the calls is not given here.

Tests used:
Candida albicans [1] = test: Antifungal activity against Candida albicans SC5314 infected in ICR mouse model assessed as median survival time at 1 mg/kg/day, po pre-infected with fungi for 2 hrs followed by compound administration and measured after 48 hrs (reference value: 3.5 days); format: functional
Candida tropicalis [2] = test: Antifungal activity against Candida tropicalis 2718 assessed as inhibition of fungal growth at 32 ug/ml incubated for 24 hrs by plate reader analysis; format: functional, organism-based; settings: dose 32.0 µg/ml
Cytochrome P450 3A4 = Cytochrome P450 3A4 (Homo sapiens, UniProt P08684)
[Candida] auris [3] = Antifungal activity against fluconazole resistant Candida auris 789 assessed as inhibition of fungal growth incubated for 48 hrs by CLSI protocol based microbroth dilution method; format: functional; settings: Candidozyma auris
Candida parapsilosis = test: Antifungal activity against Candida parapsilosis 22019 assessed as inhibition of fungal growth incubated for 24 hrs by CLSI protocol based microbroth dilution method; format: functional; settings: Lodderomyces parapsilosis
Cytochrome P450 1A2 = molecular target: T1, Cytochrome P450 1A2 (Homo sapiens, UniProt P05177); test: Inhibition of CYP1A2 in human liver microsomes using phenacetin as substrate in presence of NADPH by LC-MS/MS analysis
T1 sequence (P05177 whole entry): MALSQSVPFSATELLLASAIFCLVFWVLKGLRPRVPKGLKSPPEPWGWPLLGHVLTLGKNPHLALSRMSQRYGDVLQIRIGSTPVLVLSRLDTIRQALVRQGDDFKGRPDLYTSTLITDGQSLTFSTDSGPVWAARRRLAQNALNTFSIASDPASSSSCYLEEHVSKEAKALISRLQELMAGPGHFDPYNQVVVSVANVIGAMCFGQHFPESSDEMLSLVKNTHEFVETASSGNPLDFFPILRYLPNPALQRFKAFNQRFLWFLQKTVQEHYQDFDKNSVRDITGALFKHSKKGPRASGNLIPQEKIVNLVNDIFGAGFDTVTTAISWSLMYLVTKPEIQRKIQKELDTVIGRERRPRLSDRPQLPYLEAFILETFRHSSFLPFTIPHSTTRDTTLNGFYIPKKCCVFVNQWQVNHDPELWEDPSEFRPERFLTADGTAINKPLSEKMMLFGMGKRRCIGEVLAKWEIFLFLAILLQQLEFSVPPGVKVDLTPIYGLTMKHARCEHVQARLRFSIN

[Candida] auris [4] = Antifungal activity against fluconazole resistant Candida auris 791 assessed as inhibition of fungal growth incubated for 48 hrs by CLSI protocol based microbroth dilution method; format: functional; settings: Candidozyma auris
Candida albicans [5] = test: Antifungal activity against Candida albicans SC5314 assessed as inhibition of fungal growth at 0.0156 ug/ml incubated for 24 hrs by plate reader analysis; format: functional, organism-based; settings: dose 0.0156 µg/ml
[Candida] auris [6] = Antifungal activity against fluconazole resistant Candida auris D12 assessed as inhibition of fungal growth incubated for 48 hrs by CLSI protocol based microbroth dilution method; format: functional; settings: Candidozyma auris
Cryptococcus neoformans [7] = test: Antifungal activity against Cryptococcus neoformans H99 assessed as inhibition of fungal growth incubated for 72 hrs by CLSI protocol based microbroth dilution method; format: functional
[Candida] auris [8] = Antifungal activity against fluconazole resistant Candida auris 888 assessed as inhibition of fungal growth incubated for 48 hrs by CLSI protocol based microbroth dilution method; format: functional; settings: Candidozyma auris
Candida albicans [9] = test: Antifungal activity against Candida albicans SC5314 assessed as inhibition of fungal growth incubated for 24 hrs by CLSI protocol based microbroth dilution method; format: functional
Cytochrome P450 2C19 = Cytochrome P450 2C19 (Homo sapiens, UniProt P33261)
Nakaseomyces glabratus = test: Antifungal activity against Candida glabrata 537 assessed as inhibition of fungal growth incubated for 48 hrs by CLSI protocol based microbroth dilution method; format: functional
Candida tropicalis [10] = test: Antifungal activity against Candida tropicalis 2718 assessed as inhibition of fungal growth incubated for 24 hrs by CLSI protocol based microbroth dilution method; format: functional
Candida albicans [11] = test: Antifungal activity against Candida albicans SC5314 infected in ICR mouse model assessed as fungal burden in kidney at 1 mg/kg/day, po pre-infected with fungi for 2 hrs followed by compound administration and measured after 48 hrs (reference value: 3.89 Log10CFU/g); format: functional
[Candida] auris [12] = Antifungal activity against fluconazole resistant Candida auris BS12372 assessed as inhibition of fungal growth incubated for 48 hrs by CLSI protocol based microbroth dilution method; format: functional; settings: Candidozyma auris
Pichia kudriavzevii [13] = test: Antifungal activity against Candida krusei 4946 assessed as inhibition of fungal growth incubated for 24 hrs by CLSI protocol based microbroth dilution method; format: functional
Aspergillus fumigatus = test: Antifungal activity against Aspergillus fumigatus 7544 assessed as inhibition of fungal growth incubated for 48 hrs by CLSI protocol based microbroth dilution method; format: functional
Cytochrome P450 2C9 = Cytochrome P450 2C9 (Homo sapiens, UniProt P11712)
[Candida] auris [14] = Antifungal activity against fluconazole resistant Candida auris 887 assessed as inhibition of fungal growth incubated for 48 hrs by CLSI protocol based microbroth dilution method; format: functional; settings: Candidozyma auris
Cytochrome P450 2D6 = Cytochrome P450 2D6 (Homo sapiens, UniProt P10635)
[15] = Hemolytic activity in rabbit RBC assessed as hemolysis at 4 ug/ml incubated for 1 hrs by absorbance based assay relative to control; format: toxicity, cell-based, Oryctolagus cuniculus, Erythrocyte; settings: rabbit red blood cells, at 4 µg/mL, read-out: Activity
Cryptococcus neoformans [16] = test: Antifungal activity against Cryptococcus neoformans H99 assessed as inhibition of fungal growth at 0.125 ug/ml incubated for 48 hrs by plate reader analysis; format: functional, organism-based; settings: dose 0.125 µg/ml
[17] = molecular target: Lanosterol 14-alpha demethylase (Candida albicans (strain SC5314 / ATCC MYA-2876) (Yeast), UniProt P10613); test: Inhibition of CYP51 in Candida albicans SC5314 assessed as ergosterol level at 0.5 ug/ml incubated for 8 hrs by GC-MS analysis (reference value: 79.31%); parameters: scale not given: the % may be the effect or the level left; settings: at 0.5 µg/mL
Erythrocyte = test: Hemolytic activity in rabbit RBC assessed as hemolysis at 64 ug/ml incubated for 1 hrs by absorbance based assay; format: toxicity, cell-based, Oryctolagus cuniculus; settings: dose 64 µg/ml
Cell membrane = test: Disruption of cell membrane integrity in Candida albicans SC5314 assessed as increase in increase in red fluorescence at 0.5 ug/ml incubated for 8 hrs by PI staining based fluorescence microscopic analysis; settings: dose 0.5 µg/ml
Pichia kudriavzevii [18] = test: Antifungal activity against Candida krusei 4946 assessed as inhibition of fungal growth at 0.125 ug/ml incubated for 24 hrs by plate reader analysis; format: functional, organism-based; settings: dose 0.125 µg/ml

Chain of Lanosterol 14-alpha demethylase (P10613 whole entry): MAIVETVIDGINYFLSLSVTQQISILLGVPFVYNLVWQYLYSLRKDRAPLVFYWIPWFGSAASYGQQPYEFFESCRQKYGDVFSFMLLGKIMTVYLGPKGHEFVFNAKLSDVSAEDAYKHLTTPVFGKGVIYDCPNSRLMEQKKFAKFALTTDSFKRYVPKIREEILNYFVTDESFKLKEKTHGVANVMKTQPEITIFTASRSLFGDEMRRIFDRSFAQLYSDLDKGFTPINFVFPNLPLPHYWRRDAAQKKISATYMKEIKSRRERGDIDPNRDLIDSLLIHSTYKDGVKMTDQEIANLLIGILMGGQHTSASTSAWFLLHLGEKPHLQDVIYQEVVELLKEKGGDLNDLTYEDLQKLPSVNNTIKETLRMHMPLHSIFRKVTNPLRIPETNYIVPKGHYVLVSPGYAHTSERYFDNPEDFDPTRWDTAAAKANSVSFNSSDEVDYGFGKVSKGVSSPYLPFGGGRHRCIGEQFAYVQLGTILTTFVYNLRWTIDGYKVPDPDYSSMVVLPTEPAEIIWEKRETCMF
Chain of Cytochrome P450 2C19 (P33261 whole entry): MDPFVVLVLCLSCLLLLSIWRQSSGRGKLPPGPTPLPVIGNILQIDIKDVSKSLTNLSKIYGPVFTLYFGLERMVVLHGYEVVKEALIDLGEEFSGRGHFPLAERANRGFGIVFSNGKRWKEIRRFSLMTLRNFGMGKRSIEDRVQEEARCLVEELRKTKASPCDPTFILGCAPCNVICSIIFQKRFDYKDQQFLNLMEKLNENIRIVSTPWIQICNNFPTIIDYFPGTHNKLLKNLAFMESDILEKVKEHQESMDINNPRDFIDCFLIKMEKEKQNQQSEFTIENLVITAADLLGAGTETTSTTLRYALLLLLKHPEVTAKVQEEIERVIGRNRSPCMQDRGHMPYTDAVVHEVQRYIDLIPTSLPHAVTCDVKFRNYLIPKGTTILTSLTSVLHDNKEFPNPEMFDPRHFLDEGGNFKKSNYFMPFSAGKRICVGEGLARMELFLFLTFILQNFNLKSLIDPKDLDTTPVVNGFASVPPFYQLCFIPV
Chain of Cytochrome P450 3A4 (P08684 whole entry): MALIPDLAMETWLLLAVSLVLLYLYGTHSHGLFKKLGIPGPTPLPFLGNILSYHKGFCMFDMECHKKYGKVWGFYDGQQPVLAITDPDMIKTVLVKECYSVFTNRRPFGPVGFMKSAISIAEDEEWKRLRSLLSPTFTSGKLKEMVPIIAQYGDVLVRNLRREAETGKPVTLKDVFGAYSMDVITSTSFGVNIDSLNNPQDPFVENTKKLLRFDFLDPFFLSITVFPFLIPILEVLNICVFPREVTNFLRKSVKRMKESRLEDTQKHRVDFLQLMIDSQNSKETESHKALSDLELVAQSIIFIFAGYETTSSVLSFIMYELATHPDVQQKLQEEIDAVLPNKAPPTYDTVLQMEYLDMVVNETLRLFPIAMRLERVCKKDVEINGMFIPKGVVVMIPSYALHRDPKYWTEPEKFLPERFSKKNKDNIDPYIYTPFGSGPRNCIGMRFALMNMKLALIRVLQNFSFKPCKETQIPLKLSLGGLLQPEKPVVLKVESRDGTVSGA
Chain of Cytochrome P450 2C9 (P11712 whole entry): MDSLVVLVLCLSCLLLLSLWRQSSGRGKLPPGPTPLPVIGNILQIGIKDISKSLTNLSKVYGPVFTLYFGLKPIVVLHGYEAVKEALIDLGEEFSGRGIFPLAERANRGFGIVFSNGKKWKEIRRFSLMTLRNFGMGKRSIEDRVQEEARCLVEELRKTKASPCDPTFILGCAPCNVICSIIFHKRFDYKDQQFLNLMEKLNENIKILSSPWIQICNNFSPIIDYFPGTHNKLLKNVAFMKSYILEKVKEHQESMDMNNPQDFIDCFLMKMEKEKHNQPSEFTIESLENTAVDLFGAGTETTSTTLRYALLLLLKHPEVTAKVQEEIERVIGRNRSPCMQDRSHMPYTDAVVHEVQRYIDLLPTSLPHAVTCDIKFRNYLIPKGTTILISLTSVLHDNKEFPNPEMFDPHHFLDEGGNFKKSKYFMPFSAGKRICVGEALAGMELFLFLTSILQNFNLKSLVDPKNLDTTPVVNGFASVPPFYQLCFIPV
Chain of Cytochrome P450 2D6 (P10635 whole entry): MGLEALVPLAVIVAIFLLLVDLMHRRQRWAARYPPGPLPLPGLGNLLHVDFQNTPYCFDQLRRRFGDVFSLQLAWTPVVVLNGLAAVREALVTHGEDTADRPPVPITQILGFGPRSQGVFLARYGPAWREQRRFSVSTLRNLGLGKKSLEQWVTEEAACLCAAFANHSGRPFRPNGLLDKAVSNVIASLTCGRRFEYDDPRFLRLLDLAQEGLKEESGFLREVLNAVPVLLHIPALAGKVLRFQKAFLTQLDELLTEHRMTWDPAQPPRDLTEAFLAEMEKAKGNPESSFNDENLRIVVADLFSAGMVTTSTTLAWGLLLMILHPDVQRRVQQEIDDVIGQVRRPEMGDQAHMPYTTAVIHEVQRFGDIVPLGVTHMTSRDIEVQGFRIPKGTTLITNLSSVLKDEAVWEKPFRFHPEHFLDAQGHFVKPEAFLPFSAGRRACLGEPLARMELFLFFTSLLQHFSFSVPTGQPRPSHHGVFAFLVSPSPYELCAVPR

| SMILES | Activity (Candida tropicalis [2]) | MIC50 ([Candida] auris [3]) [µg/mL] | MIC50 (Candida parapsilosis) [µg/mL] | MIC50 ([Candida] auris [4]) [µg/mL] | Activity (Candida albicans [5]) | MIC50 ([Candida] auris [6]) [µg/mL] | MIC50 (Cryptococcus neoformans [7]) [µg/mL] | MIC50 ([Candida] auris [8]) [µg/mL] | MIC50 (Candida albicans [9]) [µg/mL] | MIC50 (Nakaseomyces glabratus) [µg/mL] | MIC50 (Candida tropicalis [10]) [µg/mL] | Activity (Candida albicans [11]) [log10CFU/g] | MIC50 ([Candida] auris [12]) [µg/mL] | MIC50 (Pichia kudriavzevii [13]) [µg/mL] | MIC50 (Aspergillus fumigatus) [µg/mL] | MIC50 ([Candida] auris [14]) [µg/mL] | Activity (Cryptococcus neoformans [16]) | further results |
| --- | --- | --- | --- | --- | --- | --- | --- | --- | --- | --- | --- | --- | --- | --- | --- | --- | --- | --- |
| C[C@@H](n1cnc2cc(Cl)ccc2c1=O)[C@](O)(Cn1cncn1)c1ccc(F)cc1F [ALBACONAZOLE] | Active | 0.5 (≈ 1.16 µM) | < 0.008 | 0.5 (≈ 1.16 µM) | Active | 0.5 (≈ 1.16 µM) | < 0.008 | 0.5 (≈ 1.16 µM) | < 0.008 | < 0.008 | < 0.008 | 3.54 | 0.25 (≈ 0.579 µM) | 0.125 (≈ 0.289 µM) | 0.25 (≈ 0.579 µM) | 0.5 (≈ 1.16 µM) | – | MST (Candida albicans [1]): 3.5 days; IC50 (Cytochrome P450 3A4): 0.04 µM; IC50 (Cytochrome P450 1A2): 60.3 µM; IC50 (Cytochrome P450 2C19): 13 µM; IC50 (Cytochrome P450 2C9): 10.4 µM; IC50 (Cytochrome P450 2D6): 31.7 µM |
| C[C@@H]1[C@H](O)[C@@H](C)/C=C/C=C/C=C/C=C/C=C/C=C/C=C/[C@H](O[C@@H]2O[C@H](C)[C@@H](O)[C@H](N)[C@@H]2O)C[C@@H]2O[C@](O)(C[C@@H](O)C[C@@H](O)[C@H](O)CC[C@@H](O)C[C@@H](O)CC(=O)O[C@H]1C)C[C@H](O)[C@H]2C(=O)O [AMPHOTERICIN B] | – | 2 (≈ 2.16 µM) | – | 4 (≈ 4.33 µM) | – | 4 (≈ 4.33 µM) | – | 2 (≈ 2.16 µM) | – | – | – | – | 2 (≈ 2.16 µM) | – | – | 2 (≈ 2.16 µM) | – | hemolysis at 1 h, 4 ug/ml [15]: > 50% |
| O[C@@](Cn1cnnn1)(c1ccc(F)cc1F)C(F)(F)c1ccc(-c2ccc(OCC(F)(F)F)cc2)cn1 [OTESECONAZOLE] | – | 8 (≈ 15.2 µM) | < 0.008 | 8 (≈ 15.2 µM) | Active | 4 (≈ 7.58 µM) | < 0.008 | 8 (≈ 15.2 µM) | < 0.008 | < 0.008 | < 0.008 | – | 1 (≈ 1.9 µM) | 0.5 (≈ 0.948 µM) | > 64 | 4 (≈ 7.58 µM) | Active | – |
| OC(Cn1cncn1)(Cn1cncn1)c1ccc(F)cc1F [FLUCONAZOLE] | – | > 64 | 1 (≈ 3.27 µM) | > 64 | – | > 64 | 8 (≈ 26.1 µM) | > 64 | 0.125 (≈ 0.408 µM) | 0.5 (≈ 1.63 µM) | < 0.125 | 2.41 | > 64 | 8 (≈ 26.1 µM) | > 64 | > 64 | – | Activity [17]: 10.61%; Activity (Erythrocyte): Non-Toxic; Activity (Cell membrane): Active |
| C[C@@H](n1ncc2cc(Cl)ccc2c1=O)[C@](O)(Cn1cnnn1)c1ccc(F)cc1F | Active | 16 (≈ 37 µM) | 0.063 (≈ 0.146 µM) | 32 (≈ 73.9 µM) | – | 8 (≈ 18.5 µM) | 0.063 (≈ 0.146 µM) | 32 (≈ 73.9 µM) | < 0.008 | < 0.008 | < 0.008 | – | 4 (≈ 9.24 µM) | 0.5 (≈ 1.16 µM) | 8 (≈ 18.5 µM) | 16 (≈ 37 µM) | – | – |
| C[C@@H](n1ccc2cc(Cl)ccc2c1=O)[C@](O)(Cn1cncn1)c1ccc(F)cc1F | – | 0.5 (≈ 1.16 µM) | < 0.008 | 0.5 (≈ 1.16 µM) | Active | 0.25 (≈ 0.58 µM) | < 0.008 | 0.25 (≈ 0.58 µM) | < 0.008 | < 0.008 | < 0.008 | – | 0.25 (≈ 0.58 µM) | 0.063 (≈ 0.146 µM) | 0.25 (≈ 0.58 µM) | 0.25 (≈ 0.58 µM) | Active | Activity (Pichia kudriavzevii [18]): Active |
